Test results taken from patent publication US6440997B2, “−E-2-(3,4-dichlorocinnamyl)-1-cyclopropylmethylpiperidine, and its antidiarrhoeal use” (Warner-Lambert Company, priority 1997, dated 2002).
pIC50: −log10 of the molar value.

Tests used:
sigma receptors = sigma receptors (Rattus norvegicus, UniProt Q9R0C9); assay: Affinity for sigma receptors: displacement of (+)[3H]-SKF 10,047 from rat brain membrane preparation; settings: σ affinity: IC50, displacement of (+)[3H]-SKF 10,047, rat brain membrane preparation
[1] = tested on: diarrhoea induced by the thermostable toxin of E. coli; assay: Diarrhoea induced by the thermostable toxin of E. coli in mice; type: in vivo; settings: Escherichia coli, po, p.o. 1 h before toxin 600 U/mouse p.o., faecal water at 120 min, read-out: Inhibitory activity ED50, E. coli toxin diarrhoea
Experimental: (§1) b)—diarrhoea induced by the thermostable toxin of E. coli: Nourished male NMRI mice (30-35 g) are weighed and placed in individual cages previously covered with white paper allowing the viewing of the faecal matter voided. The faeces are recovered as soon as voided and are brought together, by periods of 30 min, for 120 min. The faeces thus brought together are weighed before (fresh weight) and after (dry weight) drying at 120° C. for 24 h. The quantity of water present in the faeces is calculated as the difference (fresh weight—dry weight). The thermostable toxin of Escherichia coli (Sigma, E5763) is administered by the oral route at time zero at a dose of 600 U/mouse. The animals of the control batch receive, at time zero, an oral administration of saline. The administration of the test products is carried out by the oral route 1 h before the administration of the toxins.

[2] = tested on: diarrhoea induced by the A and B toxins of C. difficile; assay: Diarrhoea induced by the A and B toxins of C. difficile in mice; type: in vivo; settings: Clostridioides difficile, po, p.o. 1 h before A and B toxins 6 ng/mouse p.o., faecal water at 120 min, read-out: Inhibitory activity ED50, C. difficile toxins diarrhoea
Experimental: as §1
c)—diarrhoea induced by the A and B toxins of C. difficile: the experimental protocol, the calculation and the expression of the results are identical to those described above. The A and B toxins of C. difficile are administered by the oral route at time zero at a dose of 6 ng/mouse.

[3] = tested on: diarrhoea induced by Salmonella lipopolysaccharide (LPS); assay: Diarrhoea induced by Salmonella lipopolysaccharide (LPS) in mice; settings: for ED50: Salmonella, in Mus musculus, read-out: Inhibitory activity ED50, Salmonella LPS diarrhoea; for Inhibition of diarrhoea (%): Salmonella LPS
[4] = tested on: inflammatory diarrhoea caused by PGE2; settings: cited from earlier work
[5] = tested on: intestinal secretion induced by cholera toxin; assay: animal or person; type: in vivo, rats; settings: for ED50: Rattus norvegicus, read-out: Inhibition of intestinal secretion induced by cholera toxin: ED50
transit = assay: Effect on the transit; type: in vivo; settings: oral route, mice
[6] = Toxicity study in mice by the oral route; type: in vivo
Experimental: In animals, the toxicity study was carried out in mice by the oral route. No mortality was noted up to the strongest dose studied, namely 300 mg/kg. No toxic symptoms were evident at doses lower than 100 mg/kg. Starting from this dose, symptoms were observed such as respiratory depression, trembling, convulsions, a state of prostration or of lethargy which were reversible in a lapse of time of 24 hours after treatment.

Sequence of sigma receptors (Q9R0C9 whole entry): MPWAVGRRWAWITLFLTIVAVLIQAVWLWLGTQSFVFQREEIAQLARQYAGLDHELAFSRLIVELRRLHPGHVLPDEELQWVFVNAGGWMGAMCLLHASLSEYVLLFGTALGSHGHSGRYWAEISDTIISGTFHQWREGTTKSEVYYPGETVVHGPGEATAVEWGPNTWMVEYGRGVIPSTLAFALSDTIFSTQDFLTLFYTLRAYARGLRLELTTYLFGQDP

`Clc1ccc(/C=C/CC2CCCCN2CC2CC2)cc1Cl` (single isomer, unassigned; (+)) [(+)E-2-(3,4-dichlorocinnamyl)-1-cyclopropylmethylpiperidine] gave a pIC50 (sigma receptors) of 7.66.

`CN(C)C(=O)C(CCN1CCC(O)(c2ccc(Cl)cc2)CC1)(c1ccccc1)c1ccccc1` [loperamide] gave an ED50 [1] of 3.92 mg/kg, an ED50 [2] of 4.27 mg/kg and an ED50 [3] of 0.37 mg/kg.

With `CC(=O)SCC(Cc1ccccc1)C(=O)NCC(=O)OCc1ccccc1` (stereo not drawn) [acetorphan] the ED50 [3] was 34 mg/kg.

In the case of `CCC(C/C=C/c1ccccc1)(c1ccccc1)N(C)CC1CC1` (single isomer, unassigned; (+)) [igmesine, (+)-N-cyclopropylmethyl-N-methyldiphenyl-1,4-ethyl-1-buten-3-yl-1-amine], the ED50 [1] is given as 1.72 mg/kg, the ED50 [2] is given as 1.45 mg/kg and the “Delay of the appearance of the diarrhoea” value ([4]; 30 mg/kg i.p., co-administered with PGE2, mice) is given as “approximately 15 min”. For the same compound, the “Inhibitory effect on PGE2 diarrhoea by the oral route” value ([4]; 60 mg/kg oral route, mice) was “zero” and the ED50 [3] was 0.42 mg/kg.

With `C(=C\c1ccccc1)/CC1CCCCN1CC1CC1` (single isomer, unassigned; (-)) [Ex. 2A.3, (−)E-2-cinnamyl-1-cyclopropylmethyl-piperidine] the “Inhibition of diarrhoea (%)” value ([3]; dose 0.00003 mg/kg p.o., mice, 3e-05 mg/kg) was 45%, the “Inhibition of diarrhoea (%)” value ([3]; dose 0.0001 mg/kg p.o., mice) was 65.8% and the “Inhibition of diarrhoea (%)” value ([3]; dose 0.001 mg/kg p.o., mice, 0.001 mg/kg) was 36.8%.

In the case of `Clc1ccc(C=CCC2CCCCN2CC2CC2)cc1Cl` (racemic) [(+/−) parent racemate, racemic E-2-(3,4-dichlorocinnamyl)-1-cyclopropylmethylpiperidine], the ED50 [5] was 1.9 mg/kg, the ED50 [1] was 0.077 mg/kg and the pIC50 (sigma receptors) was 7.36. For the same compound, the ED50 [2] was 0.058 mg/kg and the ED50 [3] was 0.038 mg/kg.

With `Clc1ccc(/C=C/CC2CCCCN2CC2CC2)cc1Cl` (single isomer, unassigned; (-)) [eutomer (I), (−)E-2-(3,4-dichlorocinnamyl)-1-cyclopropylmethylpiperidine] the “Action on the transit” value (transit) was “without acting on the transit”, the ED50 [5] was 0.038 mg/kg and the “times more active than the racemate” value ([5]; rat, in vivo, po) was about 50 times. For the same compound, the ED50 [1] was 0.019 mg/kg, the pIC50 (sigma receptors) was 7.75 and the ED50 [2] was under 0.001 mg/kg. The “Dose up to which no mortality was noted (strongest dose studied)” value [6] was at least 300 mg/kg, the “Dose from which toxic symptoms were observed (none at lower doses)” value ([6]; respiratory depression, trembling, convulsions, prostration or lethargy, reversible in 24 hours) was at least 100 mg/kg and the ED50 [3] was 0.0056 mg/kg. For the same compound, the “Inhibition of diarrhoea (%)” value ([3]; dose 0.003 mg/kg p.o., mice, listed as compound of the invention, 0.003 mg/kg) was 46.1%, the “Inhibition of diarrhoea (%)” value ([3]; dose 0.01 mg/kg p.o., mice) was 59.7% and the “Inhibition of diarrhoea (%)” value ([3]; dose 0.03 mg/kg p.o., mice) was 59.5%. For the same compound, the “Inhibition of diarrhoea (%)” value ([3]; dose 0.1 mg/kg p.o., mice) was 69.5% and the “times more active than acetorphan” value ([3]; oral route, mice, diarrhoea caused by LPS) was “more than 6000 times”.

With `C(=C\c1ccccc1)/CC1CCCN1CC1CC1` (single isomer, unassigned; (-)) [Ex. 1.3, (−)E-2-cinnamyl-1-cyclopropylmethylpyrrolidine] the ED50 [3] was 0.002 mg/kg, the “Inhibition of diarrhoea (%)” value ([3]; dose 0.003 mg/kg p.o., mice, 0.003 mg/kg) was 63.8% and the “Inhibition of diarrhoea (%)” value ([3]; dose 0.01 mg/kg p.o., mice) was 78.8%. For the same compound, the “Inhibition of diarrhoea (%)” value ([3]; dose 0.03 mg/kg p.o., mice, 0.03 mg/kg) was 46.7%.
